Reference: patent US20260285850A1, “SUBSTITUTED OXAZOLIDINONES AND IMIDAZOLINONES AS HERBICIDES” (FMC CORPORATION, priority 2023, published 2026)

Experiments:
Assay type in all cases: in vivo
[1] = system: barnyardgrass (Echinochloa crusgalli); test: Test B flooded paddy test, visual plant response rating 0-100; details: 250 g ai/ha, Flood, applied to paddy water, evaluated after 13 days
Method in brief: (§1)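 2-leaf plants; flood 3 cm over soil; compound dosed into paddy water; depth kept constant; greenhouse 13 d; visual scoring vs controls. Dash = no result.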

rice (Oryza sativa) = test: as above; details: 250 g ai/ha, Flood, applied to paddy water, evaluated after 13 days
Method in brief: as §1

[2] = system: sedge, umbrella (small-flower umbrella sedge, Cyperus difformis); test: as above; details: 250 g ai/ha, Flood, applied to paddy water, evaluated after 13 days
Method in brief: as §1

[3] = system: ducksalad (Heteranthera limosa); test: as above; details: 250 g ai/ha, Flood, applied to paddy water, evaluated after 13 days
Method in brief: as §1

[4] = system: oat, wild (wild oat, Avena fatua); test: Test A preemergence soil spray, visual injury rating 0-100; details: 10 days
Method in brief: (§2)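 Compounds formulated in a non-phytotoxic solvent with surfactant are sprayed onto soil of freshly planted loam-sand pots ahead of emergence, or onto emerged plants 2-10 cm tall. After a 10-day greenhouse period, each species is scored visually for injury against untreated controls.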

kochia (Bassia scoparia) [5] = test: as above; details: 10 days
Method in brief: as §2

[6] = system: ragweed (common ragweed, Ambrosia artemisiifolia); test: as above; details: 10 days
Method in brief: as §2

[7] = system: ryegrass, Italian (italian ryegrass, Lolium multiflorum); test: as above; details: 10 days
Method in brief: as §2

[8] = system: palmer (palmer amaranth, palmer pigweed, Amaranthus palmeri); test: as above; details: 10 days
Method in brief: as §2

[9] = system: blackgrass (Alopecurus myosuroides); test: as above; details: 10 days
Method in brief: as §2

soybean (Glycine max) [10] = test: as above; details: 10 days
Method in brief: as §2

[11] = system: wheat (Triticum aestivum); test: as above; details: 10 days
Method in brief: as §2

[12] = system: green foxtail (Setaria viridis); test: as above; details: 10 days
Method in brief: as §2

[13] = system: barnyardgrass (Echinochloa crus-galli); test: as above; details: 10 days
Method in brief: as §2

corn (Zea mays) [14] = test: as above; details: 10 days
Method in brief: as §2

[15] = system: horseweed (Erigeron canadensis); test: Test A postemergence application, visual injury rating 0-100
Method in brief: as §2

[16] = system: oat, wild (wild oat, Avena fatua); test: as above
Method in brief: as §2

kochia (Bassia scoparia) [17] = test: as above
Method in brief: as §2

[18] = system: ragweed (common ragweed, Ambrosia artemisiifolia); test: as above
Method in brief: as §2

[19] = system: ryegrass, Italian (italian ryegrass, Lolium multiflorum); test: as above
Method in brief: as §2

[20] = system: palmer (palmer amaranth, palmer pigweed, Amaranthus palmeri); test: as above
Method in brief: as §2

[21] = system: blackgrass (Alopecurus myosuroides); test: as above
Method in brief: as §2

[22] = system: galium (catchweed bedstraw, Galium aparine); test: as above
Method in brief: as §2

soybean (Glycine max) [23] = test: as above
Method in brief: as §2

[24] = system: wheat (Triticum aestivum); test: as above
Method in brief: as §2

[25] = system: green foxtail (Setaria viridis); test: as above
Method in brief: as §2

[26] = system: barnyardgrass (Echinochloa crus-galli); test: as above
Method in brief: as §2

corn (Zea mays) [27] = test: as above
Method in brief: as §2

[28] = 62 g ai/ha, 0 = no effect, 100 = complete control
[29] = 125 g ai/ha, 0 = no effect, 100 = complete control
[30] = 62 g ai/ha, postemergence, 10 days, 0 = no effect, 100 = complete control
[31] = Postemergence, 16 g ai/ha, greenhouse 10 days, 0 no effect, 100 complete control

CC(C)COC(=O)C1=CCC(NC(=O)C2(C)CN(c3cc(F)cc(F)c3)C(=O)O2)C1 (centres unmarked) [Compound 98]
80: Kochia plant response rating (kochia (Bassia scoparia) [5]; 16 g ai/ha, 0 to 100 scale) | Ryegrass, Italian plant response rating (0-100) [7, 28] | Ryegrass, Italian plant response rating (0 to 100 scale) [7, 29] | Kochia plant response rating (0 to 100 scale) (kochia (Bassia scoparia) [17]; [31]) | Ryegrass, Italian plant response rating (0 to 100 scale) [19, 31] | Blackgrass plant response rating (0 to 100 scale) [21, 31] | Galium plant response rating (0 to 100 scale) [22, 31] | Wheat plant response rating (0-100) [24, 30] | Foxtail, Green plant response rating (0 to 100 scale) [25, 31]
60: Horseweed plant response rating (0-100) [15, 30] | Oat, Wild plant response rating (0 to 100 scale) [16, 31] | Ragweed plant response rating (0-100) [18, 30] | Soybean plant response rating (0-100) (soybean (Glycine max) [23]; [30])
90: Kochia plant response rating (0-100) (kochia (Bassia scoparia) [5]; [28]) | Kochia plant response rating (0 to 100 scale) (kochia (Bassia scoparia) [5]; [29]) | Wheat plant response rating (0-100) [11, 28] | Barnyardgrass plant response rating (0-100) [13, 28] | Corn plant response rating (0-100) (corn (Zea mays) [14]; [28]) | Kochia plant response rating (0-100) (kochia (Bassia scoparia) [17]; [30]) | Ryegrass, Italian plant response rating (0-100) [19, 30] | Pigweed, Palmer plant response rating (0-100) [20, 30] | Blackgrass plant response rating (0-100) [21, 30] | Galium plant response rating (0-100) [22, 30] | Foxtail, Green plant response rating (0-100) [25, 30] | Corn plant response rating (0 to 100 scale) (corn (Zea mays) [27]; [31])
65: Plant response rating, Barnyardgrass (0 to 100 scale, 0 is no effect and 100 is complete control) [1]
30: Wheat plant response rating ([11]; 16 g ai/ha, 0 to 100 scale)
100: Amaranth, Palmer plant response rating (0 to 100 scale) [8, 29] | Foxtail, Green plant response rating (0-100) [12, 28] | Oat, Wild plant response rating (0-100) [16, 30] | Barnyardgrass plant response rating (0-100) [26, 30] | Barnyardgrass plant response rating (0 to 100 scale) [26, 31] | Corn plant response rating (0-100) (corn (Zea mays) [27]; [30])
98: Plant response rating, Sedge, Umbrella (0 to 100 scale, 0 is no effect and 100 is complete control) [2]
0: Oat, Wild plant response rating ([4]; 16 g ai/ha, 0 to 100 scale) | Ragweed plant response rating ([6]; 16 g ai/ha, 0 to 100 scale) | Ragweed plant response rating (0-100) [6, 28] | Ryegrass, Italian plant response rating ([7]; 16 g ai/ha, 0 to 100 scale) | Blackgrass plant response rating (0 to 100 scale) [9, 29] | Soybean plant response rating (soybean (Glycine max) [10]; 16 g ai/ha, 0 to 100 scale) | Corn plant response rating (corn (Zea mays) [14]; 16 g ai/ha, 0 to 100 scale)
10: Pigweed, Palmer plant response rating ([8]; 16 g ai/ha, 0 to 100 scale) | Blackgrass plant response rating ([9]; 16 g ai/ha, 0 to 100 scale) | Soybean plant response rating (0 to 100 scale) (soybean (Glycine max) [10]; [29]) | Barnyardgrass plant response rating ([13]; 16 g ai/ha, 0 to 100 scale)
70: Plant response rating, Rice (0 to 100 scale, 0 is no effect and 100 is complete control) (rice (Oryza sativa)) | Wheat plant response rating (0 to 100 scale) [11, 29] | Foxtail, Green plant response rating ([12]; 16 g ai/ha, 0 to 100 scale) | Barnyardgrass plant response rating (0 to 100 scale) [13, 29] | Pigweed, Palmer plant response rating (0 to 100 scale) [20, 31] | Wheat plant response rating (0 to 100 scale) [24, 31]
75: Plant response rating, Ducksalad (0 to 100 scale, 0 is no effect and 100 is complete control) [3]
50: Ragweed plant response rating (0 to 100 scale) [6, 29] | Pigweed, Palmer plant response rating (0-100) [8, 28] | Blackgrass plant response rating (0-100) [9, 28] | Soybean plant response rating (0-100) (soybean (Glycine max) [10]; [28]) | Ragweed plant response rating (0 to 100 scale) [18, 31] | Soybean plant response rating (0 to 100 scale) (soybean (Glycine max) [23]; [31])
20: Oat, Wild plant response rating (0 to 100 scale) [4, 29] | Corn plant response rating (0 to 100 scale) (corn (Zea mays) [14]; [29]) | Horseweed plant response rating (0 to 100 scale) [15, 31]
40: Oat, Wild plant response rating (0-100) [4, 28]
